# Where “and” joins values, the source holds several entries; their conditions need not be identical. Equal entries are not always repeated. Where two headings read alike, the source gives them in different places.
# Columns and labels:
# [1] = test system: Pancreatic Ductal Adenocarcinoma #03; test: Evaluation against early stage Pancreatic Ductal Adenocarcinoma #03, BD1 female mice (Table 2); details: PO
# [2] = Water solubility noted on drug preparation for injection; assay type: physicochemical
# Procedure: (§1) Compounds as their sodium salts were prepared in a 1% sodium bicarbonate solution, H2O or phosphate buffered saline (PBS), with pH adjusted to 7.0 to 7.5 with HCl, and administered intravenously (IV) or orally (PO), at injection volumes of 0.2 mL per injection.
# [3] = test system: Pancreatic Ductal Adenocarcinoma 03; details: footnote, no dose given; cited from earlier work;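 as to T/C: mice carrying bilateral subcutaneous tumors, with tumor weight estimated from two-dimensional caliper readings taken twice a week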;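 as to activity rating: mice carrying bilateral subcutaneous tumors, with tumor weight estimated from two-dimensional caliper readings taken twice a week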
# [4] = test system: Pancreatic Ductal Adenocarcinoma 03;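 as to T/C: mice carrying bilateral subcutaneous tumors, with tumor weight estimated from two-dimensional caliper readings taken twice a week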;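 as to activity rating: mice carrying bilateral subcutaneous tumors, with tumor weight estimated from two-dimensional caliper readings taken twice a week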
# Source text: Pancreatic ductal adenocarcinoma-03, mammary adenocarcinoma-16/C, mammary adenocarcinoma-17/Adr, and human melanoma LOX were used in the studies. Tumors were maintained in the mouse strain of origin (C57B1/6 for Panc-03 and C3H for the mammary tumors). Balb/c SCID mice (B and T cell deficient) were used for tumor maintenance and chemotherapy trials involving the human melanoma LOX. Tumors were transplanted into the appropriate F1 hybrid (B6D2F1=C57B 1/6 female× DBA/2 male) or the strain of origin for the chemotherapy trials. Individual mouse body weights for each experiment were within 5 grams, and all mice were over 17 grams at the start of therapy. The mice were supplied food and water ad libitum.
# Animals were pooled, implanted subcutaneously with 30 to 60 mg tumor fragments by a 12 gauge trocar on day 0, and again pooled before unselective distribution to the various treatment and control groups. For early stage treatment, chemotherapy was started within 1 to 3 days after tumor implantation while the number of cells was relatively small (10^7 to 10^8 cells). For upstaged or advanced staged trials, the tumors were allowed to grow for five or more days before treatment was started. Tumors were measured with a caliper twice weekly. […] Tumor weights are estimated from two-dimensional measurements:
# Tumor weight (in mg)=(a×b^2)/2, where a and b are the tumor length and width in (mm), respectively.
# a) Tumor growth delay (T−C value), where T is the median time (in days) required for the treatment group tumors to reach a predetermined size (e.g., 1,000 mg), and C is the median time (in days) for the control group tumors to reach the same size. Tumor-free survivors were are excluded from these calculations (cures are tabulated separately). This value is an important criterion of anti-tumor effectiveness because it allows the quantification of tumor cell kill.
# b) Calculation of tumor cell kill for subcutaneously (SC) growing tumors. […] The conversion of the T−C values to log10 cell kill is possible because the Td of tumors re-growing post treatment (Rx) approximates the Td values of the tumors in untreated control mice.
# It should be noted that an activity rating of +++ to ++++ is needed to effect partial regression (PR) or complete regression (CR) of 100 to 300 mg size masses of most transplanted solid tumors of mice. Thus, an activity rating of + or ++ would not be scored as active by usual clinical criteria. A PR is a reduction in tumor mass to less than 50% of pretreatment size. A CR is a reduction in tumor mass to below palpable size (i.e., reduction to zero detectable mass).
# The T/C value in percent is an indication of anti-tumor effectiveness: A T/C=0% means no tumor growth. A T/C=100% means no anti-tumor activity, i.e., the treated and control tumors grew equally. […] A T/C value<10% is considered to indicate highly significant anti-tumor activity, and is the level used by NCI to justify a clinical trial if toxicity, formulation, and certain other requirements are met (termed DN-2 level activity).
# as §1
# Thus, for this test, all compounds initially were to be given IP, in an attempt to identify a suitable alternate route of administration.
# [5] = Cage 3, BID3–7, total 2,300 mg/kg
# [6] = Cage 4, BID 3, 4, total 480 mg/kg
# [7] = Cage 2, IP, 135 mg/kg day 3 only
# [8] = Cage 3, IP, 80 mg/kg day 3 only
# [9] = Cage 4, 50 mg/kg IP day 3, then IV Q2d×7 through day 15, total 455 mg/kg
# [10] = IP d3 then IV Q2d: 5–15, total dosage 455 mg/kg, BDF1 males
# [11] = IP, d 3, total dosage 80 mg/kg, BDF1 males
# [12] = IP, d 3, total dosage 135 mg/kg, BDF1 males
smiles,measurement,setting,value
CNC(=O)C(C)Oc1ccc(Oc2cnc3ccc(Cl)cc3n2)cc1 (centres unmarked) [Compound 14b],Day of Wt. Loss Nadir,[1]; [5],8 days
same,Drug Deaths (day of death),[1]; [5],0/5
same,Growth Delay,[1]; [5],7.0 days
same,Log Cell Kill,[1]; [5],0.8
same,Mean Body Wt. Loss (g/mouse),[1]; [5],−2.0 g/mouse
same,Median Tumor Burden in mg on d18 (Range),[1]; [5],671 mg
same,T/C %,[1]; [5],39%
same,Time in days to 1000 mg (range),[1]; [5],21 days
same,Tumor Free on d 154,[1]; [5],0/5
same,day of full body weight recovery,[1]; [5],10 days
same,% Body Wt. Loss,[1]; [6],4%
same,Day of Wt. Loss Nadir,[1]; [6],5 days
same,Drug Deaths (day of death),[1]; [6],0/5
same,Growth Delay,[1]; [6],2.0 days
same,Log Cell Kill,[1]; [6],0.2
same,Mean Body Wt. Loss (g/mouse),[1]; [6],−0.8 g/mouse
same,Median Tumor Burden in mg on d18 (Range),[1]; [6],1266 mg
same,T/C %,[1]; [6],74%
same,Time in days to 1000 mg (range),[1]; [6],15 days
same,Tumor Free on d 154,[1]; [6],0/5
same,% Body Wt. Loss,"[1]; Cage 5, BID 3, total 108 mg/kg",0%
same,Day of Wt. Loss Nadir,"[1]; Cage 5, BID 3, total 108 mg/kg",5 days
same,Drug Deaths (day of death),"[1]; Cage 5, BID 3, total 108 mg/kg",0/5
same,Growth Delay,"[1]; Cage 5, BID 3, total 108 mg/kg",2.7 days
same,Log Cell Kill,"[1]; Cage 5, BID 3, total 108 mg/kg",0.3
same,Mean Body Wt. Loss (g/mouse),"[1]; Cage 5, BID 3, total 108 mg/kg",+0.4 g/mouse
same,Median Tumor Burden in mg on d18 (Range),"[1]; Cage 5, BID 3, total 108 mg/kg",1312 mg
same,T/C %,"[1]; Cage 5, BID 3, total 108 mg/kg",77%
same,Time in days to 1000 mg (range),"[1]; Cage 5, BID 3, total 108 mg/kg",15.7 days
same,Tumor Free on d 154,"[1]; Cage 5, BID 3, total 108 mg/kg",0/5
same,water solubility,[2],water insoluble
CC[C@]1(O)C[C@@H]2CN(CCc3c([nH]c4ccccc34)[C@@](C(=O)OC)(c3cc4c(cc3OC)N(C)[C@H]3[C@@](O)(C(=O)OC)[C@H](OC(C)=O)[C@]5(CC)C=CCN6CC[C@]43[C@@H]65)C2)C1 [Vinblastine],sensitivity of this tumor to standard agents (activity rating),[3],It is insensitive to Vinblastine.
CC(=O)O[C@H]1C(=O)[C@@]2(C)[C@H]([C@H](OC(=O)c3ccccc3)[C@]3(O)C[C@H](OC(=O)[C@H](O)[C@@H](NC(=O)c4ccccc4)c4ccccc4)C(C)=C1C3(C)C)[C@]1(OC(C)=O)CO[C@@H]1C[C@@H]2O [Taxol],sensitivity of this tumor to standard agents (activity rating),[3],This tumor is highly sensitive to Taxol (++++ activity rating). (Highly active >2.8)
"CC(Oc1ccc(Oc2cnc3ccc(Cl)cc3n2)cc1)C(=O)NCC(=O)O [Compound 14i (R), {2-{4-(7-Chloro-quinoxalin-2-yloxy)-phenoxy}propionylamino}acetic acid]",water solubility,[2],good water solubility
same,Preparation: state of the injection preparation,"[2]; white solid + 3% EtOH + 1% POE + 0.25% NaHCO3 + saline, pH = 8.0","Compound 14i (R): white solid + 3% EtOH + 1% POE + 0.25% NaHCO3 + saline → solution (pH = 8.0); 0.5 ml/mouse/inj, IP; 0.2 ml/mouse/inj, IV."
same,Activity Rating,[4]; [7],+ (0.7–1.2)
same,T/C,[4]; [7],10%
same,log cell kill,[4]; [7],1.1
same,Activity Rating,[4]; [8],+ (0.7–1.2)
same,T/C,[4]; [8],37%
same,day of death,[4]; [8],4 days
same,deaths,[4]; [8],one injection death
same,log kill,[4]; [8],0.7
same,Activity Rating,[4]; [9],++ (1.3–1.9)
same,T/C,[4]; [9],10% and 8%
same,day of full weight recovery,[4]; [9],≤ 11 days
same,day of weight loss nadir,[4]; [9],7 days
same,log kill,[4]; [9],1.6
same,Comments (Active/Inactive),[4]; [10],Active
same,Comments (activity rating),[4]; [10],(++) (1.3–1.9)
same,Drug Death,[4]; [10],0/5
same,Log Cell Kill,[4]; [10],1.6
same,Median Tumor Burden in mg on d17,[4]; [10],151 mg
same,T-C,[4]; [10],11 days
same,T/C %,[4]; [10],8%
same,Time to 1000 mg,[4]; [10],26 days
same,Tumor Free on 148,[4]; [10],0/5
same,Comments (Active/Inactive),[4]; [11],Active
same,Comments (activity rating),[4]; [11],(+) (0.7–1.2)
same,Drug Death,[4]; [11],1/5
same,Drug Death (day of death),[4]; [11],(d4)
same,Log Cell Kill,[4]; [11],0.7
same,Median Tumor Burden in mg on d17,[4]; [11],675 mg
same,T-C,[4]; [11],5 days
same,T/C %,[4]; [11],37%
same,Time to 1000 mg,[4]; [11],20 days
same,Tumor Free on 148,[4]; [11],0/5
same,Comments (Active/Inactive),[4]; [12],Active
same,Comments (activity rating),[4]; [12],(+) (0.7–1.2)
same,Drug Death,[4]; [12],0/5
same,Log Cell Kill,[4]; [12],1.1
same,Median Tumor Burden in mg on d17,[4]; [12],189 mg
same,T-C,[4]; [12],7.5 days
same,T/C %,[4]; [12],10%
same,Time to 1000 mg,[4]; [12],22.5 days
same,Tumor Free on 148,[4]; [12],0/5
same,Day of Wt. Loss Nadir,"[4]; mouse, in vivo",7 days and 4 days
same,day of full weight recovery,"[4]; mouse, in vivo, ip, 135 mg/kg",≤ 9 days
same,day of weight loss nadir,"[4]; mouse, in vivo, ip, 135 mg/kg",7 days
same,toxicity observations,"[4]; mouse, in vivo, ip, 135 mg/kg",prolonged pain response

# — patent US7109341B2, “Therapeutic amides” (Wayne State University, priority 2002, dated 2006)
